{"source": "patent US6852695B2", "about": "“Orally active fraction of momordica charantia, active peptides thereof, and their use in the treatment of diabetes” (Theracos, Inc., priority 1997, dated 2005)", "key": {"normal rats": {"system": "normal rats", "test": "Oral glucose tolerance test in normal rats", "type": "in vivo, rat", "conditions": "compared to vehicle treated animals, FIG. 11", "description": "FIG. 11 represents the hypoglycemic activity of MC6.1 and its derivators, MC6.2 and 6.3 analogs in oral glucose tolerance test in normal rats."}, "SD rats": {"system": "SD rats", "test": "Comparison of MC6 (oral, i.v.) with i.v. r-insulin during glucose infusion in SD rats", "type": "in vivo, rat", "conditions": "500 μg MC6 i.v. or 150 mU r-insulin i.v. at 60 minutes following glucose infusion, FIG. 5", "experimental": "In the next experiment, orally administered purified fraction MC6 (500 μg) was compared with i.v. injection of insulin (150 mU) in SD rats. Animals were divided into four groups and starved for three hours. Group 1 received PBS only; group 2 was given MC6 orally 60 minutes before glucose infusion; group 3 received 150 mU r-insulin (Humalin-R® of Novo-Nordisk) i.v. at 60 minutes following glucose infusion through jugular vein and group 4 received 500 μg MC6 in 1 ml PBS (i.v.) at 60 minutes following glucose infusion through jugular vein. In all cases, glucose infusion was at 18 mg/min/kg. Blood samples were collected from the carotid artery at different time intervals and quantitative plasma glucose levels were measured […]."}}, "data": [{"substance": "6.3: 7-a.a. derivative of MC6.1: K-T-N-M-K-H-M (SEQ ID NO:03) (KTNMKHM)", "values": [{"measurement": "lowering blood glucose in oral glucose tolerance test", "setting": "normal rats", "result": "effective in lowering blood glucose"}]}, {"substance": "r-insulin: r-insulin (Humalin-R of Novo-Nordisk), 150 mU i.v., comparator", "values": [{"measurement": "hypoglycemic profile, systemic (i.v.) injection", "setting": "SD rats", "result": "identical hypoglycemic profile"}]}]}
